In publication PMC10601436 (ACS Omega, 2023):
Peptide text beside a SMILES is read from it.

These compounds were tested against hDPP-IV (Homo sapiens, UniProt P27487) (assay: DPP-IV inhibitory assay).
Type: biochemical

Chain of hDPP-IV (P27487 whole entry): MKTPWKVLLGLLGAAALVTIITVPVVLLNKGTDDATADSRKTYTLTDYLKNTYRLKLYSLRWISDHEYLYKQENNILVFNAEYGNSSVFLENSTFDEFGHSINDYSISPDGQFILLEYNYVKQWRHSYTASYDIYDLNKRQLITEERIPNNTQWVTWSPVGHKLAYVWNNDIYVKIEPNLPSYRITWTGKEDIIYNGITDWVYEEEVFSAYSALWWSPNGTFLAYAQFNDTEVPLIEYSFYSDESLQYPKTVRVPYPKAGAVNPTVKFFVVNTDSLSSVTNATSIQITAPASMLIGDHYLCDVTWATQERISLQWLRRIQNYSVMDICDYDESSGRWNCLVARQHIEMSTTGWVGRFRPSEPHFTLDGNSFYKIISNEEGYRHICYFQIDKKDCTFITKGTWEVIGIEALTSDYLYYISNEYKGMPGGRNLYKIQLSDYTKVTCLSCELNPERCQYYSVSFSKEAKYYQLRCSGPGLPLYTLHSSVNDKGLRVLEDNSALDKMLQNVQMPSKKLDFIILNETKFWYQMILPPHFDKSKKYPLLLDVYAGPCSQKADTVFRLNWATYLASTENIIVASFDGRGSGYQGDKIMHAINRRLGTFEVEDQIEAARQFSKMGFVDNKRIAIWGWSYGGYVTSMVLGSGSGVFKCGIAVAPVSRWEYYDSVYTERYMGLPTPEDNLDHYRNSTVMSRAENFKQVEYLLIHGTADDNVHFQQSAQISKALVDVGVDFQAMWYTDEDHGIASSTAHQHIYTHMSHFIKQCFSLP

Compound	IC50
CC(C)[C@H](NC(=O)[C@@H](N)Cc1c[nH]c2ccccc12)C(=O)N[C@H](C(=O)O)[C@@H](C)O [WVT] (H-Trp-Val-Thr-OH)	336 µM
C[C@H](NC(=O)[C@H](C)NC(=O)[C@@H](N)Cc1c[nH]c2ccccc12)C(=O)O [WAA] (H-Trp-Ala-Ala-OH)	275 µM
C[C@H](NC(=O)[C@@H](N)Cc1c[nH]c2ccccc12)C(=O)N[C@@H](Cc1ccc(O)cc1)C(=O)O [WAY] (H-Trp-Ala-Tyr-OH)	117 µM
C[C@H](NC(=O)[C@@H](N)Cc1c[nH]c2ccccc12)C(=O)N[C@H](C(=O)O)[C@@H](C)O [WAT] (H-Trp-Ala-Thr-OH)	296 µM
N[C@@H](Cc1c[nH]c2ccccc12)C(=O)N1CCC[C@H]1C(=O)N[C@@H](CC(=O)O)C(=O)O [WPD] (H-Trp-Pro-Asp-OH)	481 µM
CC(C)[C@H](N)C(=O)N1CCC[C@H]1C(=O)N[C@H](C(=O)N1CCC[C@H]1C(=O)N[C@@H](Cc1c[nH]cn1)C(=O)O)C(C)C [VPVPH] (H-VPVPH-OH)	51.1 µM
C[C@H](NC(=O)[C@@H](N)Cc1c[nH]c2ccccc12)C(=O)N[C@@H](Cc1ccccc1)C(=O)O [WAF] (H-Trp-Ala-Phe-OH)	153 µM
CC(C)[C@H](NC(=O)[C@@H](NC(=O)[C@@H](N)Cc1c[nH]c2ccccc12)C(C)C)C(=O)O [WVV] (H-Trp-Val-Val-OH)	275 µM
N[C@@H](Cc1c[nH]c2ccccc12)C(=O)N1CCC[C@H]1C(=O)N[C@@H](Cc1ccc(O)cc1)C(=O)O [WPY] (H-Trp-Pro-Tyr-OH)	304 µM
N[C@@H](Cc1c[nH]c2ccccc12)C(=O)N1CCC[C@H]1C(=O)N[C@@H](Cc1ccccc1)C(=O)O [WPF] (H-Trp-Pro-Phe-OH)	286 µM
CC(C)[C@H](NC(=O)[C@@H](N)Cc1c[nH]c2ccccc12)C(=O)N[C@@H](CC(=O)O)C(=O)O [WVD] (H-Trp-Val-Asp-OH)	343 µM
CC(C)[C@H](NC(=O)[C@@H](N)Cc1c[nH]c2ccccc12)C(=O)N[C@@H](Cc1ccccc1)C(=O)O [WVF] (H-Trp-Val-Phe-OH)	188 µM
C[C@H](NC(=O)[C@@H]1CCCN1C(=O)[C@@H](N)Cc1c[nH]c2ccccc12)C(=O)O [WPA] (H-Trp-Pro-Ala-OH)	206 µM

Continued, values first:

IC50	Compound
209 µM	N=C(N)NCCC[C@H](NC(=O)[C@@H]1CCCN1C(=O)[C@@H](N)Cc1c[nH]c2ccccc12)C(=O)O [WPR] (H-Trp-Pro-Arg-OH)
297 µM	N=C(N)NCCC[C@H](NC(=O)[C@@H](N)Cc1c[nH]c2ccccc12)C(=O)N[C@@H](Cc1ccc(O)cc1)C(=O)O [WRY] (H-Trp-Arg-Tyr-OH)
289 µM	C[C@H](NC(=O)[C@@H](N)Cc1c[nH]c2ccccc12)C(=O)N[C@@H](CCC(N)=O)C(=O)O [WAQ] (H-Trp-Ala-Gln-OH)
286 µM	N=C(N)NCCC[C@H](NC(=O)[C@@H](N)Cc1c[nH]c2ccccc12)C(=O)N[C@@H](CCC(N)=O)C(=O)O [WRQ] (H-Trp-Arg-Gln-OH)
313 µM	N=C(N)NCCC[C@H](NC(=O)[C@@H](N)Cc1c[nH]c2ccccc12)C(=O)N[C@@H](CC(N)=O)C(=O)O [WRN] (H-Trp-Arg-Asn-OH)
257 µM	N=C(N)NCCC[C@H](NC(=O)[C@@H](N)Cc1c[nH]c2ccccc12)C(=O)N[C@@H](Cc1ccccc1)C(=O)O [WRF] (H-Trp-Arg-Phe-OH)
270 µM	N=C(N)NCCC[C@H](NC(=O)[C@@H](N)Cc1c[nH]c2ccccc12)C(=O)NCC(=O)O [WRG] (H-Trp-Arg-Gly-OH)
277 µM	N=C(N)NCCC[C@H](NC(=O)[C@@H](N)Cc1c[nH]c2ccccc12)C(=O)N[C@@H](Cc1c[nH]cn1)C(=O)O [WRH] (H-Trp-Arg-His-OH)
283 µM	C[C@H](NC(=O)[C@@H](N)Cc1c[nH]c2ccccc12)C(=O)N[C@@H](CS)C(=O)O [WAC] (H-Trp-Ala-Cys-OH)
352 µM	C[C@H](NC(=O)[C@@H](N)Cc1c[nH]c2ccccc12)C(=O)NCC(=O)O [WAG] (H-Trp-Ala-Gly-OH)
462 µM	C[C@H](NC(=O)[C@@H](N)Cc1c[nH]c2ccccc12)C(=O)N[C@@H](CCC(=O)O)C(=O)O [WAE] (H-Trp-Ala-Glu-OH)
